Read-outs that look alike come from different tables or passages of the source.
How the values were obtained:
[1] = MTS cytotoxicity assay on HeLa cells; assay type: cell-based; conditions: human
Protocol: An MTS assay was used to determine the cytotoxic effect of Benzodioxole derivatives on HeLa (cervical carcinoma cells).
All chemicals were purchased from Sigma-Aldrich and Alfa Aesar. Melting points were determined with an SMP-II Digital Melting Point Apparatus and are uncorrected. IR spectra were obtained using a Perkin Elmer Spectrum 400 FTIR/FTNIR spectrometer. ^1H-NMR and ^13C-NMR spectra were recorded in DMSO-d6 and were performed on two NMR instruments. The first was a Bruker 500 MHz-Avance III High-Performance Digital FT-NMR spectrometer at the Faculty of Science, Department of Chemistry, The University of Jordan, Jordan (it was used for the ^1H-NMR of just one compound, 3e). The second was a Bruker 300 MHz-Avance III High-Performance Digital FT-NMR spectrometer at the NMR facility at the Doping and Narcotics Analysis Laboratory of the faculty of pharmacy, Anadolu University, Turkey (it was used for both ^1H-NMR and ^13C-NMR for the other compounds). Tetramethylsilane was used as the internal standard. All chemical shifts were recorded as d (ppm). […] The yellow product of this enzymatic reaction was determined using a UV spectrophotometer with a Microplate Reader (BioRad, Japan) at a wavelength of 415 nm. HeLa Cervical Carcinoma cell line was purchased from ATCC (ATCC® CCL-2™), and the cyototoxicty test of the cell viability was assessed by the CellTilter 96® Aqueous One Solution Cell Proliferation (MTS) assay according to the manufacturer’s instructions (Promega Corporation, Madison, WI) (Additional file 1).
HeLa Cervical Carcinoma was cultured in RPMI-1640 media and supplemented with 10% fetal bovine serum, 1% penicillin/streptomycin antibiotics and 1% L-glutamine. Cells were grown in a humidified atmosphere with 5% CO2 at 37 °C, and they were seeded in 2.6 × 10^4 cells/well in a 96-well plate. After 48 h, the cells were confluent, the media was changed, and cells were incubated with four concentrations (2, 1, 0.5, and 0.2 mM) of the tested compounds for 24 h. Cell viability was assessed by the CellTilter 96® Aqueous One Solution Cell Proliferation (MTS) Assay according to the manufacturer’s instructions (Promega Corporation, Madison, WI). Briefly, at the end of the treatment, 20 μL of MTS solution per 100 μL of media was added to each well and incubated at 37 °C for 2 h. Absorbance was measured at 490 nm.

human recombinant COX2 = molecular target: T1, human recombinant COX2 (Homo sapiens, UniProt P35354); assay: COX inhibitor screening assay kit (Cayman No. 560131), COX2; assay type: biochemical; conditions: for COX1/COX2 Ratio Selectivity: ratio of IC50 COX1 to IC50 COX2; for IC50: run in duplicate with three concentrations (50, 20, and 5 µM)
T1 construct: purchased Cayman Chemical 560131 (kit)
T1 sequence (P35354 18-604): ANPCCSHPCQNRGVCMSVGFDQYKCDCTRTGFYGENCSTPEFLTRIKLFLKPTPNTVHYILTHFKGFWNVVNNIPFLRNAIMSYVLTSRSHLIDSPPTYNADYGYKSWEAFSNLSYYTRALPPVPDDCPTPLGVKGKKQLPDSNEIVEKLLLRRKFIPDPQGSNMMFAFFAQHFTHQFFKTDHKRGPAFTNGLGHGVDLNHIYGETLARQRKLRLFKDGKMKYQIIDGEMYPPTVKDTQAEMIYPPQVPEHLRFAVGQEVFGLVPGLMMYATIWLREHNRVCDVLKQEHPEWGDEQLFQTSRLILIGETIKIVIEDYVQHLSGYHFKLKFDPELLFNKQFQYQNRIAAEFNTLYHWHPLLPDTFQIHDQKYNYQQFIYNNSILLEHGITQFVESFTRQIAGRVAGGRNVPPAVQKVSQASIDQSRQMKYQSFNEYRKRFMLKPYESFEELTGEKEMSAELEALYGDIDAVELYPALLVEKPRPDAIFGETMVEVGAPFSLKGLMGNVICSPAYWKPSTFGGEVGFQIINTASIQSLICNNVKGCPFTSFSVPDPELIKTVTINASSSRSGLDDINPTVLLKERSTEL

ovine COX1 = molecular target: T2, ovine COX1 (Ovis aries, UniProt P05979); assay: COX inhibitor screening assay kit (Cayman No. 560131), COX1; assay type: biochemical
T2 construct: purchased Cayman Chemical 560131 (kit)
T2 sequence (P05979 25-600): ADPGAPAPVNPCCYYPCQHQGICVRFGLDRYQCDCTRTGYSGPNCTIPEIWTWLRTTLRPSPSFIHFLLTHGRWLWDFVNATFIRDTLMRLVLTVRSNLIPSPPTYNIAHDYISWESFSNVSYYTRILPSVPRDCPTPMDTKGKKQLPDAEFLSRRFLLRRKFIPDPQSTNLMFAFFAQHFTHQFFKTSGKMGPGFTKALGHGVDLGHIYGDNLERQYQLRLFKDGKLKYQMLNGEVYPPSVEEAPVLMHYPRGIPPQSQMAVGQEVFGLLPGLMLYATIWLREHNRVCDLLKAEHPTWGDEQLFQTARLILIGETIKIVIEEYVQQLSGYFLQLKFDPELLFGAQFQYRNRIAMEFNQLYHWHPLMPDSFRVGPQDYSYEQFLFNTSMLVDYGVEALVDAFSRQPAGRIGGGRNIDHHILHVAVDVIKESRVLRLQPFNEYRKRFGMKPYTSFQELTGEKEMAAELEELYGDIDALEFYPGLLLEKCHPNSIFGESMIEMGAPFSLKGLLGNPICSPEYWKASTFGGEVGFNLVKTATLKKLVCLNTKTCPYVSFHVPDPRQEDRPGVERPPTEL
Protocol: All chemicals were purchased from Sigma-Aldrich and Alfa Aesar. Melting points were determined with an SMP-II Digital Melting Point Apparatus and are uncorrected. IR spectra were obtained using a Perkin Elmer Spectrum 400 FTIR/FTNIR spectrometer. ^1H-NMR and ^13C-NMR spectra were recorded in DMSO-d6 and were performed on two NMR instruments. […] The second was a Bruker 300 MHz-Avance III High-Performance Digital FT-NMR spectrometer at the NMR facility at the Doping and Narcotics Analysis Laboratory of the faculty of pharmacy, Anadolu University, Turkey (it was used for both ^1H-NMR and ^13C-NMR for the other compounds). Tetramethylsilane was used as the internal standard. All chemical shifts were recorded as d (ppm). […] HeLa Cervical Carcinoma cell line was purchased from ATCC (ATCC® CCL-2™), and the cyototoxicty test of the cell viability was assessed by the CellTilter 96® Aqueous One Solution Cell Proliferation (MTS) assay according to the manufacturer’s instructions (Promega Corporation, Madison, WI) (Additional file 1).
The assay was run in duplicate with three concentrations (50, 20, and 5 µM). […] The percentage inhibition of the three concentrations was used to calculate the IC50 [16].

[2] = HeLa cervical carcinoma cells (ATCC CCL-2), HeLa, 24 h incubation, MTS, read-out: HeLa Cell CC50 in milli-molar
[3] = run in duplicate with three concentrations (50, 20, and 5 µM), read-out: The IC50 in µM of COX1

Structure (SMILES) | CC50 at 24 h [1, 2] [µM] | COX1/COX2 Ratio Selectivity (human recombinant COX2) | IC50 (human recombinant COX2) [µM] | IC50 (ovine COX1; [3]) [µM] | melting point [°C] | CC50 at 24 h [1] [µM] | IC50 (ovine COX1; The IC50 in µM of COX1, run in duplicate with three concentrations (50, 20, and 5 µM)) [µM]
COC(=O)Cc1cc2c(cc1C(=O)c1ccccc1)OCO2 [3a, Methyl 2-(6-benzoylbenzo[d][1,3]dioxol-5-yl)acetate] | 1490 | 0.859 | 14.3 | 12.3 |  |  | 
COC(=O)Cc1cc2c(cc1C(=O)c1ccccc1I)OCO2 [3b, Methyl 2-(6-(2-iodobenzoyl)benzo[d][1,3]dioxol-5-yl)acetate] | 228 | 0.862 | 1.3 | 1.12 |  |  | 
COC(=O)Cc1cc2c(cc1C(=O)c1ccc(I)cc1)OCO2 [3c, Methyl 2-(6-(4-iodobenzoyl)benzo[d][1,3]dioxol-5-yl)acetate] | 1790 | 0.723 | 37.5 | 27.1 | 119 to 121 |  | 
COC(=O)Cc1cc2c(cc1C(=O)c1ccccc1Br)OCO2 [3d, Methyl 2-(6-(2-bromobenzoyl)benzo[d][1,3]dioxol-5-yl)acetate] | 1610 | 0.897 | 1.45 |  | 85 to 87 |  | 
COC(=O)Cc1cc2c(cc1C(=O)c1cccc(Br)c1)OCO2 [3e, Methyl 2-(6-(3-bromobenzoyl)benzo[d][1, 3]dioxol-5-yl)acetate] |  | 0.864 | 2.73 | 2.36 | 72.5 to 74.5 | 219 | 
COC(=O)Cc1cc2c(cc1C(=O)c1ccc(Cl)cc1Cl)OCO2 [3f, Methyl 2-(6-(2,4-dichlorobenzoyl)benzo[d][1, 3]dioxol-5-yl)acetate] |  |  |  |  | 95 to 97 |  | 
O=C(O)Cc1cc2c(cc1C(=O)c1ccccc1)OCO2 [4a, 2-(6-benzoylbenzo[d][1,3]dioxol-5-yl)acetic acid] | 1940 | 0.434 | 3.34 | 1.45 | 184.5 to 186.5 |  | 
O=C(O)Cc1cc2c(cc1C(=O)c1ccccc1I)OCO2 [4b, 2-(6-(2-iodobenzoyl)benzo[d][1,3]dioxol-5-yl)acetic acid] | 697 | 0.250 | 30.7 | 7.67 | 147 to 149 |  | 
O=C(O)Cc1cc2c(cc1C(=O)c1ccc(I)cc1)OCO2 [4c, 2-(6-(4-iodobenzoyl)benzo[d][1,3]dioxol-5-yl)acetic acid] | 1050 | 0.861 | 39.1 | 33.7 | 239.5 to 241.5 |  | 
O=C(O)Cc1cc2c(cc1C(=O)c1ccccc1Br)OCO2 [4d, 2-(6-(2-bromobenzoyl)benzo[d][1,3]dioxol-5-yl)acetic acid] | 547 | 1.809 | 2.35 | 4.25 | 145 to 147 |  | 
O=C(O)Cc1cc2c(cc1C(=O)c1cccc(Br)c1)OCO2 [4e, 2-(6-(3-bromobenzoyl)benzo[d][1, 3]dioxol-5-yl)acetic acid] | 437 | 0.144 | 49.3 | 7.11 | 154 to 156 |  | 
O=C(O)Cc1cc2c(cc1C(=O)c1ccc(Cl)cc1Cl)OCO2 [4f, 2-(6-(2,4-dichlorobenzoyl)benzo[d][1,3]dioxol-5-yl)acetic acid] | 1020 | 0.169 | 4.29 | 0.725 | 168.5 to 170 |  | 
CC(C(=O)O)c1cccc(C(=O)c2ccccc2)c1 (stereo not drawn) [Ketoprofen, reference compound] |  |  |  |  |  |  | 0.031

— paper PMC7487730, “Design, synthesis and biological evaluation of novel benzodioxole derivatives as COX inhibitors and cytotoxic agents” (BMC Chemistry, 2020)
